Literature values in patent publication EP4378455A1, “A PHARMACEUTICAL FORMULATION COMPRISING EMPAGLIFLOZIN” (SANOVEL ILAC SANAYI VE TICARET A.S., priority 2022, dated 2024).

solubility in acetonitrile (acetonitrile): slightly soluble
solubility in ethanol (ethanol): slightly soluble
solubility in methanol (methanol): sparingly soluble
solubility in toluene (toluene): practically insoluble
solubility in water (water (pH 1-7.4)): very slightly soluble
Structure (SMILES): OC[C@H]1O[C@@H](c2ccc(Cl)c(Cc3ccc(O[C@H]4CCOC4)cc3)c2)[C@H](O)[C@@H](O)[C@@H]1O [Empagliflozin, (1S)-1,5-anhydro-1-(4-chloro-3-{4-[(3S)-tetrahydrofuran-3-yloxy]benzyl}phenyl)-D-glucitol]
